From US12259378B2, “Dynamic clamps and methods of use thereof” (priority 2018, dated 2025)
“Also recorded” adds a separate entry of the source. Where two headings read alike, the source gives them in different places.

Assays:
[1] = system: patients with R1882Q mutation; conditions: human, in vivo
Text: (§1) All patients, or their parents or legal guardian in the case of minors or individuals with intellectual disability, gave written informed consent. The study was approved by the Human Research Ethics Committee of Austin Health, Melbourne.
(§2) Clinical data was collated from the literature for previously reported individuals (N=14), with updated clinical information obtained in one patient. Individuals whose clinical data was not previously published (N=5), had their mutations identified through clinical testing. Detailed phone or clinical interviews with these parents were undertaken by paediatric epileptologists (KBH, MRC), home videos were reviewed and medical records from the treating neurologist obtained.

[2] = system: patients with R853Q mutation; conditions: human, in vivo
Text: as §1, §2

[3] = system: patients with R853Q mutation; conditions: human, in vivo; cited from earlier work
[4] = system: patients with R1882Q mutation; conditions: human, in vivo; cited from earlier work
human Nav 1.2 channel = human Nav 1.2 channel (Homo sapiens, UniProt Q99250, R1882Q)
Sequence of human Nav 1.2 channel (Q99250 whole entry R1882Q, looked up): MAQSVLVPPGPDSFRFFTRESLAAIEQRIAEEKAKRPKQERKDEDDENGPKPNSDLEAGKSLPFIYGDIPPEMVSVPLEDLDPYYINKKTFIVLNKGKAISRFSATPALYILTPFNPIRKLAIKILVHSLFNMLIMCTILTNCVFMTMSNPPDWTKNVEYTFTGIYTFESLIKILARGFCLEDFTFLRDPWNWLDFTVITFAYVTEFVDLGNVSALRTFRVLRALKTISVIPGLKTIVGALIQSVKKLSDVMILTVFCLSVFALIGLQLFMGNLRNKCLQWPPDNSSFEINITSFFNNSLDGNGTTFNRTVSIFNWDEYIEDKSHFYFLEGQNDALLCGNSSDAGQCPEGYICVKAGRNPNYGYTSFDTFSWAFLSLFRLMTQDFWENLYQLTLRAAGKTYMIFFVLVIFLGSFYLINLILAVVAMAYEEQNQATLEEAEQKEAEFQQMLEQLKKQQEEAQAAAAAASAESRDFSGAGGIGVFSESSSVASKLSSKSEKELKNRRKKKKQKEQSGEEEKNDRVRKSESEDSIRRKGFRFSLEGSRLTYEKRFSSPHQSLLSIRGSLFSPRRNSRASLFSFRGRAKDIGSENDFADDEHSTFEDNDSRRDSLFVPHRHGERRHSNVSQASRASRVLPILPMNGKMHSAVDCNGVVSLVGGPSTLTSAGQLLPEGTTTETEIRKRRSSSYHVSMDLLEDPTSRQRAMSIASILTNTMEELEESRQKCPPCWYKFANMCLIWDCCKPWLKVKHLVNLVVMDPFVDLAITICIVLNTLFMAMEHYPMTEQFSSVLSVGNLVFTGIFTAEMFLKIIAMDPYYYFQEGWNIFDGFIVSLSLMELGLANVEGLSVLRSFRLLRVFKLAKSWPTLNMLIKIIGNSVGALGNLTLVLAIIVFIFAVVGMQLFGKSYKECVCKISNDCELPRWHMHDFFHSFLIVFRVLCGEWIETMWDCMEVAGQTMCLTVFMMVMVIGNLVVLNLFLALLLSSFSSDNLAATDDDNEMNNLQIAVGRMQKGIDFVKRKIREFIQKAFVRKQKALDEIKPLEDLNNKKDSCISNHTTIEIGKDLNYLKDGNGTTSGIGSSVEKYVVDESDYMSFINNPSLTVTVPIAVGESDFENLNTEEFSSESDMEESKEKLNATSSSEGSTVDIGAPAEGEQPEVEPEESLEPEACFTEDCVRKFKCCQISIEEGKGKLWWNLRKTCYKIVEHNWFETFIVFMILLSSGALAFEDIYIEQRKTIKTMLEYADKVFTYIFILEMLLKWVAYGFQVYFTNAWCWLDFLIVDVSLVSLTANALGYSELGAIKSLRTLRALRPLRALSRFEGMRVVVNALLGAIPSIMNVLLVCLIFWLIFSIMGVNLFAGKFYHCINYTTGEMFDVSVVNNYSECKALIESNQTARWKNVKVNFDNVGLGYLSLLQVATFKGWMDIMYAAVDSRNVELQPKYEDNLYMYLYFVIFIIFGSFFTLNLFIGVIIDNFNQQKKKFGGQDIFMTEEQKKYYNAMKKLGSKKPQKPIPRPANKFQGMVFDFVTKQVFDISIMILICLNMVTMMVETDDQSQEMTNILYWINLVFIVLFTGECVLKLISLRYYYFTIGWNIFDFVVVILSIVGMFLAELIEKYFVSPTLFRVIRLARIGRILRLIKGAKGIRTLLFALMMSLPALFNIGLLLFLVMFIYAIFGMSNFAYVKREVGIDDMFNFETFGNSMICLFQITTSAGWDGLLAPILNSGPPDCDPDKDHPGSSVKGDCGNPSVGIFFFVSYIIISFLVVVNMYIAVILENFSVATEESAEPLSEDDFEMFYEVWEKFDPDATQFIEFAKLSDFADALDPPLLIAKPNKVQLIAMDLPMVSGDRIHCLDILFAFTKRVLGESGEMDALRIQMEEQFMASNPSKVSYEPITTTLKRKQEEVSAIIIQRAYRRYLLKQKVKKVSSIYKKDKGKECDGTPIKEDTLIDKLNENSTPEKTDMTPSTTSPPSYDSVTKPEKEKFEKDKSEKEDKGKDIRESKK

## C=C(C)[C@@H]1CCC(C)=C[C@H]1c1c(O)cc(CCCCC)cc1O [CBD, cannabidiol]
[1]
  Other AED response: Benefit

## NC(=O)N1c2ccccc2C=Cc2ccccc21 [CBZ, carbamazepine]
[1]
  Seizure control, summary over patients: Seizures were improved
[2]
  Other sodium channel blocker response: benefit

## CN1C(=O)CC(=O)N(c2ccccc2)c2cc(Cl)ccc21 [CLB, clobazam]
[3]
  Other AED response: Benefit

## Nc1nnc(-c2cccc(Cl)c2Cl)c(N)n1 [LTG, lamotrigine]
[4]
  Other sodium channel blocker response: no effect

## NC(=O)N1c2ccccc2CC(=O)c2ccccc21 [OXC, oxcarbazepine]
[2]
  Other sodium channel blocker response: seizure control remained good
[4]
  Other sodium channel blocker response: no effect

## O=C1NC(=O)C(c2ccccc2)(c2ccccc2)N1 [PHT, phenytoin]
[1]
  Adverse effect with phenytoin loads (movement disorder): ‘continuous thrashing’
  PHT response: Benefit
  Seizure control, summary over patients: some showed marked improvement; also recorded: improved seizure control in two and no definite effect on seizures in three; also recorded: some patients with R1882Q mutations become seizure free; also recorded: not universal
[2]
  PHT response: No effect
[4]
  PHT response: No effect
[3]
  PHT response: No effect

## CCCCCc1cc(O)c2c(c1)OC(C)(C)[C@@H]1CCC(C)=C[C@@H]21 [THC, tetrahydrocannabinol]
[2]
  Other AED response: Benefit

## CC1(C)O[C@@H]2[C@@H](CO[C@@]3(COS(N)(=O)=O)OC(C)(C)O[C@@H]23)O1 [TPM, topiramate]
[3]
  Other AED response: Benefit

## C=CC(N)CCC(=O)O (stereo not shown) [VGB, vigabatrin]
[2]
  Seizure control, summary over patients: beneficial in one and exacerbated seizures in three
[3]
  Other AED response: Benefit

## CCCC(CCC)C(=O)O [VPA, valproic acid]
[1]
  Other AED response: Benefit
[3]
  Other AED response: Benefit

## CC1OC(C)OC(C)O1 (stereo not shown) [paraldehyde]
[2]
  Other AED response: Benefit

## NC1=N[C@H](O)[C@H]2[C@H]3O[C@]4(O)O[C@@H]([C@@H](O)[C@@]2(N1)[C@@H]4O)[C@]3(O)CO [tetrodotoxin]
Human Nav 1.2 channel
  Sensitivity of persistent INa to tetrodotoxin: sensitive

## CCCCCCC(=O)OCC(COC(=O)CCCCCC)OC(=O)CCCCCC [triheptanoin]
[1]
  Other AED response: Benefit
[2]
  Improvement of movement disorder: Improvement
  Other AED response: Benefit

## L-Dopa/Carbidopa
[2]
  Improvement of movement disorder: Improvement

## adrenocorticotropic hormone (SYSMEHFRWGKPVGKKRRPVKVYPNGAEDESAEAFPLEF; Corticotropin; UniProt P01189 138-176, looked up) [ACTH]
[2]
  Other AED response: Benefit
  Seizure control, summary over patients: beneficial in four patients
[3]
  Other AED response: Benefit
